Results taken from patent US8466130B2, “Mitochondria targeted cationic anti-oxidant compounds for prevention, therapy or treatment of hyper-proliferative disease, neoplasias and cancers” (Colby Pharmaceutical Company, priority 2009, dated 2013).

Experiments:
LNCaP cells = test: Hoechst dye-DNA fluorescence growth assay, LNCaP cells; assay type: cell-based, human; conditions: varying concentrations (FIG. 8)
Experimental: (§1) For DNA assay, each culture plate was thawed and equilibrated to room temperature under protection from light. Hoechst dye was then added to each well in 200 μL of high salt TNE buffer (10 mM Tris, 1 mM EDTA, 2 M NaCl [pH 7.4]) at a final concentration of 6.7 μg/mL. After further incubation at room temperature for 2 hours under protection from light, culture plates were scanned on the CytoFluor 2350™ scanner using the 360/460 nm filter excitation and emission set. The DNA fluorescence intensity was used as a measure of cell growth.
(§2) The effects of varying concentrations of Mito-T drug on the growth of LNCaP and PC-3 cells over a period of 4 days was assayed using the Hoechst dye-DNA fluorescence assay described above. In these and all subsequent cell culture studies described below, each data point and its associated error bar are respectively, an average value and the standard deviation of data obtained from six wells of a 96-well plate run in duplicate in three separate sets of experiments.

PC-3 cells = test: Hoechst dye-DNA fluorescence growth assay, PC-3 cells; assay type: cell-based, human; conditions: varying concentrations (FIG. 8)
Experimental: as §1, §2

CC1(C)CC(OCCCCCCCCCC[P+](c2ccccc2)(c2ccccc2)c2ccccc2)CC(C)(C)N1[O] [MitoT-10, [4-(10-triphenylphosphonium)decyloxy-2,2,6,6-tetramethylpiperidinyloxy, freeradical]bromide]
growth and proliferation (LNCaP cells): inhibitory effect
growth and proliferation (PC-3 cells): inhibitory effect
